In patent publication US20250114460A1, “NOVEL PLK1 DEGRADATION INDUCING COMPOUND” (UPPTHERA, INC., priority 2021, published 2025):

Key:
Format in all cases: cell-based
PLK1 = molecular target: T1, PLK1 (Homo sapiens, UniProt P53350); assay: Luciferase assay for PLK1 in HeLa LgBit (Plk1-HiBit KI) cell line; settings: 300 nM compound, luminescence after 9 hours
T1 construct: endogenous in cells; host or cells: HeLa LgBit (Plk1-HiBit KI): HeLa stably expressing LgBit, with a CRISPR/Cas9 knock-in of HiBit at the endogenous PLK1 locus
T1 sequence (P53350 whole entry): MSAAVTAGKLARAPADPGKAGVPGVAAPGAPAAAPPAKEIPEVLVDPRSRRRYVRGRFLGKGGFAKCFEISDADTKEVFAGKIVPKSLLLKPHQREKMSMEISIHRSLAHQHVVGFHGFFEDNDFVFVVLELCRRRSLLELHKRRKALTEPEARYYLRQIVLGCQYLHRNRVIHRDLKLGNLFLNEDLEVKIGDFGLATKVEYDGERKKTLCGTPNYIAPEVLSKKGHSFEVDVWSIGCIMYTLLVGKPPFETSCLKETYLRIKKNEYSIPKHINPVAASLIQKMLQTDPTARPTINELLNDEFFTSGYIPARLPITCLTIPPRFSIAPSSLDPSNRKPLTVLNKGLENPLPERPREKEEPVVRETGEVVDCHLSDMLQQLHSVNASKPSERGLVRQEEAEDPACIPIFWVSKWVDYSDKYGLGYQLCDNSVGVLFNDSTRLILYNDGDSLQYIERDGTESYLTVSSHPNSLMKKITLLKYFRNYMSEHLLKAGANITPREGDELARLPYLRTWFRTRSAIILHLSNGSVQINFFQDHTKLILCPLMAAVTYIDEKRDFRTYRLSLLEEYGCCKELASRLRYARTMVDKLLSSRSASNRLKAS
Procedure, shortened: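 HeLa cells stably expressing LgBit, with HiBit knocked in at the C-terminus of endogenous Plk1, released from a 24 h 2 mM thymidine block and grown 18 h. Endurazine added, then compound at 300 nM; luminescence tracked in real time, expressed as ratio to DMSO.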

NCI-H526 cell line = assay: Cell viability assay for H526 cell (EZ-Cytox); settings: Homo sapiens, NCI-H526, 120 h; H526 cells, 5 days, 3000 nM to 0.46 nM
Procedure, shortened: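 NCI-H526 cells were exposed to compound in CO2 incubator culture for 5 days. Viability was read by EZ-Cytox absorbance at 450 nm after 3 min shaking, giving IC50 values.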

MRC-5 cell line = assay: Cell viability assay for MRC-5 cell line (EZ-Cytox); settings: for IC50: Homo sapiens, MRC5, 120 h, MRC-5 normal cell line, 5 days, 10000 nM to 1.52 nM, N.D. = no cytotoxicity until 10 μM, read-out: Activity: IC50 value of Exemplary Compound to MRC-5 cell line
Description: 4. Cell Viability Assay for MRC-5 Cell Line
(1) Culture of MRC-5 Cell Line
Passage of cultured cells was maintained within P15.
(2) Treatment of Compounds of the Present Invention
Then, it was cultured in 37° C.
(3) Cytotoxicity Experiment
CO2 incubator for 4 hours.

C=C[C@@]1(F)CN(C2CCCC2)c2nc(Nc3ccc(C(=O)NC4CCN(C(=O)CCN5CCN(c6cccc7c6C(=O)N(C6CCC(=O)NC6=O)C7=O)CC5)CC4)cc3OC)ncc2N(C)C1=O (single isomer, unassigned) [Compound 108]
Activity: ratio of the luminescense value of each Exemplary Compound treatment group to DMSO treatment group (PLK1): ++ (++<0.6) | IC50 (NCI-H526 cell line): < 0.1 µM | IC50 (MRC-5 cell line): > 10 µM

CC[C@@H]1C(=O)N(C)c2cnc(Nc3ccc(C(=O)NCCOCCOCCNc4cccc5c4C(=O)N(C4CCC(=O)NC4=O)C5=O)cc3OC)nc2N1C1CCCC1 (stereo partly drawn) [Comparative Compound 1, reference compound]
cytotoxicity in normal cell line (MRC-5 cell line; MRC-5, in words): exhibited a high level of cytotoxicity in normal cell line

COc1cc(C(=O)NC2CCN(CCOc3cccc4c3C(=O)N(C3CCC(=O)NC3=O)C4=O)CC2)ccc1Nc1ncc2c(n1)N(C1CCCC1)CC(F)(F)C(=O)N2C (stereo not drawn) [Compound 5, 4-((9-cyclopentyl-7,7-difluoro-5-methyl-6-oxo-6,7,8,9-tetrahydro-5H-pyrimido[4,5-b][1,4]diazepin-2-yl)amino)-N-(1-(2-((2-(2,6-dioxopiperidin-3-yl)-1,3-dioxoisoindolin-4-yl)oxy)ethyl)piperidin-4-yl)-3-methoxybenzamide]
Activity: ratio of the luminescense value of each Exemplary Compound treatment group to DMSO treatment group (PLK1): ++ (++<0.6) | IC50 (NCI-H526 cell line): < 0.4 µM | IC50 (MRC-5 cell line): 20 µM

COc1cc(C(=O)N[C@H]2CCN(CCOc3cccc4c3C(=O)N(C3CCC(=O)NC3=O)C4=O)C2)ccc1Nc1ncc2c(n1)N(C1CCCC1)CC(F)(F)C(=O)N2C (stereo partly drawn) [Compound 9, 4-((9-cyclopentyl-7,7-difluoro-5-methyl-6-oxo-6,7,8,9-tetrahydro-5H-pyrimido[4,5-b][1,4]diazepin-2-yl)amino)-N-((3S)-1-(2-((2-(2,6-dioxopiperidin-3-yl)-1,3-dioxoisoindolin-4-yl)oxy)ethyl)pyrrolidin-3-yl)-3-methoxybenzamide]
Activity: ratio of the luminescense value of each Exemplary Compound treatment group to DMSO treatment group (PLK1): ++ (++<0.6) | IC50 (MRC-5 cell line): > 10 µM

COc1cc(C(=O)N[C@H]2CC[C@H](N(C)CCCOc3cccc4c3C(=O)N(C3CCC(=O)NC3=O)C4=O)CC2)ccc1Nc1ncc2c(n1)N(C1CCCC1)CC(F)(F)C(=O)N2C (stereo partly drawn) [Compound 15, 4-((9-cyclopentyl-7,7-difluoro-5-methyl-6-oxo-6,7,8,9-tetrahydro-5H-pyrimido[4,5-b][1,4]diazepin-2-yl)amino)-N-((1r,4r)-4-((3-((2-(2,6-dioxopiperidin-3-yl)-1,3-dioxoisoindolin-4-yl)oxy)propyl)(methyl)amino)cyclohexyl)-3-methoxybenzamide]
Activity: ratio of the luminescense value of each Exemplary Compound treatment group to DMSO treatment group (PLK1): ++ (++<0.6) | IC50 (NCI-H526 cell line): < 0.05 µM | IC50 (MRC-5 cell line): 16.7 µM

COc1cc(C(=O)NC2CCN(CCOCCOCCNc3cccc4c3CN(C3CCC(=O)NC3=O)C4=O)CC2)ccc1Nc1ncc2c(n1)N(C1CCCC1)CC(F)(F)C(=O)N2C (stereo not drawn) [Compound 18, 4-((9-cyclopentyl-7,7-difluoro-5-methyl-6-oxo-6,7,8,9-tetrahydro-5H-pyrimido[4,5-b][1,4]diazepin-2-yl)amino)-N-(1-(2-(2-(2-((2-(2,6-dioxopiperidin-3-yl)-1-oxoisoindolin-4-yl)amino)ethoxy)ethoxy)ethyl)piperidin-4-yl)-3-methoxybenzamide]
Activity: ratio of the luminescense value of each Exemplary Compound treatment group to DMSO treatment group (PLK1): ++ (++<0.6) | IC50 (NCI-H526 cell line): < 0.03 µM | IC50 (MRC-5 cell line): > 10 µM

COc1cc(C(=O)NC2CCN(C(=O)CCCNc3cccc4c3C(=O)N(C3CCC(=O)NC3=O)C4=O)CC2)ccc1Nc1ncc2c(n1)N(C1CCCC1)CC(F)(F)C(=O)N2C (stereo not drawn) [Compound 25, 4-((9-cyclopentyl-7,7-difluoro-5-methyl-6-oxo-6,7,8,9-tetrahydro-5H-pyrimido[4,5-b][1,4]diazepin-2-yl)amino)-N-(1-(4-((2-(2,6-dioxopiperidin-3-yl)-1,3-dioxoisoindolin-4-yl)amino)butanoyl)piperidin-4-yl)-3-methoxybenzamide]
Activity: ratio of the luminescense value of each Exemplary Compound treatment group to DMSO treatment group (PLK1): ++ (++<0.6) | IC50 (NCI-H526 cell line): < 0.05 µM | IC50 (MRC-5 cell line): > 10 µM

COc1cc(C(=O)NC2CCN(C(=O)CCCNc3cccc4c3CN(C3CCC(=O)NC3=O)C4=O)CC2)ccc1Nc1ncc2c(n1)N(C1CCCC1)CC(F)(F)C(=O)N2C (stereo not drawn) [Compound 26, 4-((9-cyclopentyl-7,7-difluoro-5-methyl-6-oxo-6,7,8,9-tetrahydro-5H-pyrimido[4,5-b][1,4]diazepin-2-yl)amino)-N-(1-(4-((2-(2,6-dioxopiperidin-3-yl)-1-oxoisoindolin-4-yl)amino)butanoyl)piperidin-4-yl)-3-methoxybenzamide]
Activity: ratio of the luminescense value of each Exemplary Compound treatment group to DMSO treatment group (PLK1): ++ (++<0.6) | IC50 (NCI-H526 cell line): < 0.05 µM | IC50 (MRC-5 cell line): > 10 µM

CN1C(=O)C(F)(F)CN(C2CCCC2)c2nc(Nc3ccc(C(=O)NC4CCN(C(=O)CCCNc5cccc6c5C(=O)N(C5CCC(=O)NC5=O)C6=O)CC4)cc3OC(F)(F)F)ncc21 (stereo not drawn) [Compound 28, 4-((9-cyclopentyl-7,7-difluoro-5-methyl-6-oxo-6,7,8,9-tetrahydro-5H-pyrimido[4,5-b][1,4]diazepin-2-yl)amino)-N-(1-(4-((2-(2,6-dioxopiperidin-3-yl)-1,3-dioxoisoindolin-4-yl)amino)butanoyl)piperidin-4-yl)-3-(trifluoromethoxy)benzamide]
Activity: ratio of the luminescense value of each Exemplary Compound treatment group to DMSO treatment group (PLK1): ++ (++<0.6) | IC50 (MRC-5 cell line): > 10 µM

COc1cc(C(=O)NC2CCN(C(=O)CCCOc3cccc4c3C(=O)N(C3CCC(=O)NC3=O)C4=O)CC2)c(F)cc1Nc1ncc2c(n1)N(C1CCCC1)CC(F)(F)C(=O)N2C (stereo not drawn) [Compound 30, 4-((9-cyclopentyl-7,7-difluoro-5-methyl-6-oxo-6,7,8,9-tetrahydro-5H-pyrimido[4,5-b][1,4]diazepin-2-yl)amino)-N-(1-(4-((2-(2,6-dioxopiperidin-3-yl)-1,3-dioxoisoindolin-4-yl)oxy)butanoyl)piperidin-4-yl)-2-fluoro-5-methoxybenzamide]
Activity: ratio of the luminescense value of each Exemplary Compound treatment group to DMSO treatment group (PLK1): ++ (++<0.6) | IC50 (NCI-H526 cell line): < 0.1 µM | IC50 (MRC-5 cell line): > 10 µM

COc1cc(C(=O)N2CCC(N3CCC(C#Cc4ccc5c(c4)C(=O)N(C4CCC(=O)NC4=O)C5=O)CC3)CC2)ccc1Nc1ncc2c(n1)N(C1CCCC1)CC(F)(F)C(=O)N2C (stereo not drawn) [Compound 182, 5-((1′-(4-((9-cyclopentyl-7,7-difluoro-5-methyl-6-oxo-6,7,8,9-tetrahydro-5H-pyrimido[4,5-b][1,4]diazepin-2-yl)amino)-3-methoxybenzoyl)-[1,4′-piperidin]-4-yl)ethynyl)-2-(2,6-dioxopiperidin-3-yl)isoindoline-1,3-dione]
Activity: ratio of the luminescense value of each Exemplary Compound treatment group to DMSO treatment group (PLK1): ++ (++<0.6) | IC50 (MRC-5 cell line): 9.75 µM

COc1cc(C(=O)NN2CCC(N3CC4(CCN(c5cccc6c5CN(C5CCC(=O)NC5=O)C6=O)CC4)C3)CC2)ccc1Nc1ncc2c(n1)N(C(C)C)CC(F)(F)C(=O)N2C (stereo not drawn) [Compound 218, 4-((7,7-difluoro-9-isopropyl-5-methyl-6-oxo-6,7,8,9-tetrahydro-5H-pyrimido[4,5-b][1,4]diazepin-2-yl)amino)-N-(4-(7-(2-(2,6-dioxopiperidin-3-yl)-1-oxoisoindolin-4-yl)-2,7-diazaspiro[3.5]nonan-2-yl)piperidin-1-yl)-3-methoxybenzamide]
Activity: ratio of the luminescense value of each Exemplary Compound treatment group to DMSO treatment group (PLK1): ++ (++<0.6) | IC50 (NCI-H526 cell line): < 0.05 µM
